The subject of the test is Influenza A/WSN/33-Luciferase virus. The test is described as follows: microbe, parasite or virus in culture. As to conditions: A549, 72 h, luciferase signal three days later, read-out: IC50 antiviral activity (Luciferase reporter assay). The format is cell-based.

Molecules are shown by their SMILES.

Regarding `Cn1cccc(Nc2nn(-c3ccc(OC(F)(F)F)cc3)c(=O)c3c2CN(C=O)CC3)c1=O` [Example 154, 4-[(1-Methyl-2-oxo-3-pyridyl)amino]-1-oxo-2-[4-(trifluoromethoxy)phenyl]-7,8-dihydro-5H-pyrido[3,4-d]pyridazine-6-carbaldehyde], the IC50 turned out to be 144 nM. The figure for `Cn1cccc(Nc2nn(-c3ccc(OC(F)(F)F)cc3)c(=O)c3c2CCN(C=O)C3)c1=O` [Example 155, 1-[(1-Methyl-2-oxo-3-pyridyl)amino]-4-oxo-3-[4-(trifluoromethoxy)phenyl]-7,8-dihydro-5H-pyrido[3,4-d]pyridazine-6-carbaldehyde] is 86 nM; for `Cn1cccc(Nc2nn(-c3ccc(OC(F)(F)F)cc3)c(=O)c3c2CCN(S(C)(=O)=O)C3)c1=O` [Example 156, 1-[(1-Methyl-2-oxo-3-pyridyl)amino]-6-methylsulfonyl-3-[4-(trifluoromethoxy)phenyl]-7,8-dihydro-5H-pyrido[3,4-d]pyridazin-4-one] it is 266 nM; for `Cn1cccc(Nc2nn(-c3ccc(OC(F)(F)F)cc3)c(=O)c3c2CN(S(C)(=O)=O)CC3)c1=O` [Example 157, 4-[(1-Methyl-2-oxo-3-pyridyl)amino]-6-methylsulfonyl-2-[4-(trifluoromethoxy)phenyl]-7,8-dihydro-5H-pyrido[3,4-d]pyridazin-1-one] it is 167 nM. The figure for `CCN1CCc2c(Nc3cccn(C)c3=O)nn(-c3ccc(OC(F)(F)F)cc3)c(=O)c2C1` [Example 158, 6-Ethyl-1-[(1-methyl-2-oxo-3-pyridyl)amino]-3-[4-(trifluoromethoxy)phenyl]-7,8-dihydro-5H-pyrido[3,4-d]pyridazin-4-one] is 105 nM; for `CC(C)N1CCc2c(Nc3cccn(C)c3=O)nn(-c3ccc(OC(F)(F)F)cc3)c(=O)c2C1` [Example 159, 6-Isopropyl-1-[(1-methyl-2-oxo-3-pyridyl)amino]-3-[4-(trifluoromethoxy)phenyl]-7,8-dihydro-5H-pyrido[3,4-d]pyridazin-4-one] it is 186 nM; for `CNC(=O)N1CCc2c(c(Nc3cccn(C)c3=O)nn(-c3ccc(OC(F)(F)F)cc3)c2=O)C1` [Example 160, N-Methyl-4-[(1-methyl-2-oxo-3-pyridyl)amino]-1-oxo-2-[4-(trifluoromethoxy)phenyl]-7,8-dihydro-5H-pyrido[3,4-d]pyridazine-6-carboxamide] it is 86 nM. Turning to `CNC(=O)N1CCc2c(Nc3cccn(C)c3=O)nn(-c3ccc(OC(F)(F)F)cc3)c(=O)c2C1` [Example 161, N-Methyl-1-[(1-methyl-2-oxo-3-pyridyl)amino]-4-oxo-3-[4-(trifluoromethoxy)phenyl]-7,8-dihydro-5H-pyrido[3,4-d]pyridazine-6-carboxamide], the IC50 was found to be 112 nM.

For `Cn1cccc(Nc2nn(-c3ccc(C(C)(C)O)cc3)c(=O)c3ccccc23)c1=O` [Example 162, 2-[4-(1-Hydroxy-1-methyl-ethyl)phenyl]-4-[(1-methyl-2-oxo-3-pyridyl)amino]phthalazin-1-one], the IC50 was 1400 nM. Take `O=c1c(Nc2nn(-c3ccc(OC(F)(F)F)cc3)c(=O)c3ccccc23)cccn1CCO` [Example 163, 4-[[1-(2-Hydroxyethyl)-2-oxo-3-pyridyl]amino]-2-[4-(trifluoromethoxy)phenyl]phthalazin-1-one]: the IC50 amounted to 62 nM. Next, `Cn1cccc(Nc2nn(-c3ccc(OC(F)(F)F)cc3)c(=O)c3c2CCC(O)C3)c1=O` (centres unmarked) [Example 164, 7-Hydroxy-4-[(1-methyl-2-oxo-3-pyridyl)amino]-2-[4-(trifluoromethoxy)phenyl]-5,6,7,8-tetrahydrophthalazin-1-one]: 46 nM; `Cn1cccc(Nc2nn(-c3ccc(OC(F)(F)F)cc3)c(=O)c3c2CC(O)CC3)c1=O` (centres unmarked) [Example 165, 6-hydroxy-4-[(1-methyl-2-oxo-3-pyridyl)amino]-2-[4-(trifluoromethoxy)phenyl]-5,6,7,8-tetrahydrophthalazin-1-one]: 24 nM; `CC(O)(CN)Cn1cccc(Nc2nn(-c3ccc(OC(F)(F)F)cc3)c(=O)c3c2CCC3)c1=O` (centres unmarked) [Example 166, 1-[[1-(3-Amino-2-hydroxy-2-methyl-propyl)-2-oxo-3-pyridyl]amino]-3-[4-(trifluoromethoxy)phenyl]-6,7-dihydro-5H-cyclopenta[d]pyridazin-4-one]: 107 nM. For the molecule `O=C(Cn1cccc(Nc2nn(-c3ccc(OC(F)(F)F)cc3)c(=O)c3c2CCC3)c1=O)N1CCNCC1` [Example 167, 1-[[2-Oxo-1-(2-oxo-2-piperazin-1-yl-ethyl)-3-pyridyl]amino]-3-[4-(trifluoromethoxy)phenyl]-6,7-dihydro-5H-cyclopenta[d]pyridazin-4-one], the IC50 was found to be 148 nM. Next, `O=c1c(Nc2nn(-c3ccc(OC(F)(F)F)cc3)c(=O)c3c2CCC3)cccn1CCNC1COC1` [Example 168, 1-[[1-[2-(Oxetan-3-ylamino)ethyl]-2-oxo-3-pyridyl]amino]-3-[4-(trifluoromethoxy)phenyl]-6,7-dihydro-5H-cyclopenta[d]pyridazin-4-one]: 24 nM. For the molecule `O=c1c(Nc2nn(-c3ccc(OC(F)(F)F)cc3)c(=O)c3c2CCC3)cncn1CCN1CC(O)C1` [Example 169, 1-[[1-[2-(3-Hydroxyazetidin-1-yl)ethyl]-6-oxo-pyrimidin-5-yl]amino]-3-[4-(trifluoromethoxy)phenyl]-6,7-dihydro-5H-cyclopenta[d]pyridazin-4-one], the IC50 was 307 nM. The figure for `N[C@H]1CO[C@H](Cn2cccc(Nc3nn(-c4ccc(OC(F)(F)F)cc4)c(=O)c4c3CCC4)c2=O)OC1` [Example 170, trans-1-[[1-[(5-Amino-1,3-dioxan-2-yl)methyl]-2-oxo-3-pyridyl]amino]-3-[4-(trifluoromethoxy)phenyl]-6,7-dihydro-5H-cyclopenta[d]pyridazin-4-one] is 83 nM; for `Cc1cc(OC(F)(F)F)ccc1-n1nc(Nc2cccn(C)c2=O)c2c(c1=O)CCC2` [Example 171, 1-[(1-Methyl-2-oxo-3-pyridyl)amino]-3-[2-methyl-4-(trifluoromethoxy)phenyl]-6,7-dihydro-5H-cyclopenta[d]pyridazin-4-one] it is 6830 nM. The figure for `COc1ccc(-n2nc(Nc3cccn(C)c3=O)c3c(c2=O)CCC3)cc1OC` [Example 172, 3-(3,4-Dimethoxyphenyl)-1-[(1-methyl-2-oxo-3-pyridyl)amino]-6,7-dihydro-5H-cyclopenta[d]pyridazin-4-one] is 3480 nM; for `COc1cc(-n2nc(Nc3cccn(C)c3=O)c3c(c2=O)CCC3)ccc1C(F)(F)F` [Example 173, 3-[3-Methoxy-4-(trifluoromethyl)phenyl]-1-[(1-methyl-2-oxo-3-pyridyl)amino]-6,7-dihydro-5H-cyclopenta[d]pyridazin-4-one] it is 74600 nM; for `CNC(=O)c1cc(Nc2nn(-c3ccc(OC(F)(F)F)cc3)c(=O)c3c2CCCC3)c(=O)n(C)c1` [Example 174, N,1-Dimethyl-6-oxo-5-[[4-oxo-3-[4-(trifluoromethoxy)phenyl]-5,6,7,8-tetrahydrophthalazin-1-yl]amino]pyridine-3-carboxamide] it is 14600 nM. The figure for `CNC(=O)c1cc(Nc2nn(-c3ccc(OC(F)(F)F)cc3)c(=O)c3ccccc23)c(=O)n(C)c1` [Example 175, N,1-Dimethyl-6-oxo-5-[[4-oxo-3-[4-(trifluoromethoxy)phenyl]phthalazin-1-yl]amino]pyridine-3-carboxamide] is 74400 nM; for `Cn1cc(C(F)(F)F)cc(Nc2nn(-c3ccc(OC(F)(F)F)cc3)c(=O)c3ccccc23)c1=O` [Example 176, 4-[[1-methyl-2-oxo-5-(trifluoromethyl)-3-pyridyl]amino]-2-[4-(trifluoromethoxy)phenyl]phthalazin-1-one] it is 80500 nM.

For the origin of these results see US10597380B2, “Pyridazinone-based broad spectrum anti-influenza inhibitors” (Hoffmann-La Roche Inc., priority 2017, dated 2020).
